Assay results taken from patent publication US10006044B2, “Soybean event SYHT04R and compositions and methods for detection thereof” (Syngenta Participations AG, priority 2010, dated 2018).

Tests used:
Assay type in all cases: in vivo, Glycine max
Soybean event SYHT04R = assay: Yield of soybean event SYHT04R sprayed with mesotrione versus the event unsprayed; conditions: for average yield advantage versus unsprayed: SYHT04R in several elite soybean genotypes, additional replicated trials
Method: This observation has been made during multiple seasons of replicated agronomic and efficacy trials conducted on the STYHT04R event in the genotype ‘Jack.’ In a representative study, SYHT04R was tested in twenty Midwestern locations.

event SYHT04R = assay: Herbicide tolerance performance of transgenic seeds and progeny plants; conditions: from a population of about 90 transformants
Description: After plants became established in the soil and new growth appeared (˜1-2 weeks), plants were sampled and tested for the presence of desired transgene by TAQMAN® analysis using appropriate probes for the HPPD genes or promoters. Positive plants were transplanted into 4″ square pots containing Fafard #3 soil. Sierra 17-6-12 slow release fertilizer was incorporated into the soil at the recommended rate. The plants were then relocated into a standard greenhouse to acclimatize (˜1 week). The environmental conditions were: 27° C. day; 21° C. night; 14 hour photoperiod (with supplemental light); ambient humidity. After acclimatizing (˜1 week), the plants were sampled and tested in detail for the presence and copy number of inserted transgenes. Transgenic soybean plants were grown to maturity for T1 seed production. T1 plants were grown up, and after TAQMAN® analysis, homozygous plants were grown for seed production. Transgenic seeds and progeny plants were used to further evaluate their herbicide tolerance performance and molecular characteristics.

SYHT04R soybean plants = assay: Field efficacy: leaf injury after mesotrione treatment, event SYHT04R; conditions: line SYHT04R; 210 g ai/ha mesotrione at V2/V3 stage; % of leaves showing injury; 9 US locations
Method: (§1) SYH[…] soybean plants were tested for efficacy against mesotrione in 9 locations in the United States. The non-transgenic soybean line Jack was used as a control. […]

[1] = tested on: non-transgenic soybean line Jack; assay: Field efficacy: leaf injury after mesotrione treatment, control line; conditions: 210 g ai/ha mesotrione at V2/V3 stage, % of leaves showing injury, 9 US locations
Method: as §1

CS(=O)(=O)c1ccc(C(=O)C2C(=O)CCCC2=O)c([N+](=O)[O-])c1 [mesotrione]
greater yield than the unsprayed event (Soybean event SYHT04R; 2× application at early vegetative stage, separate study, ten locations): 1.4 bushels per acre | greater yield than the unsprayed event (Soybean event SYHT04R; 2× application at early vegetative stage, twenty Midwestern locations, genotype Jack): 3.7 bushels per acre | greater yield than the unsprayed event (Soybean event SYHT04R; 2× pre-emergence application, separate study, ten locations): 3.1 bushels per acre | greater yield than the unsprayed event (Soybean event SYHT04R; 2× pre-emergence application, twenty Midwestern locations, genotype Jack): 4.9 bushels per acre | average yield advantage versus unsprayed (Soybean event SYHT04R; early post-emergence application): 0.6 bushels per acre | average yield advantage versus unsprayed (Soybean event SYHT04R; pre-emergence application): 1.1 bushels per acre | mesotrione tolerance of the event (event SYHT04R): high level of mesotrione tolerance | % Injury 5-11 DAT (SYHT04R soybean plants): 19% | % Injury 14-21 DAT (SYHT04R soybean plants): 10% | % Injury 25-36 DAT (SYHT04R soybean plants): 4% | % Injury 5-11 DAT [1]: 57% | % Injury 14-21 DAT [1]: 78% | % Injury 25-36 DAT [1]: 72%
